# Assays:
# [1] = target: T1, human ABCG2 (Homo sapiens, UniProt Q9UNQ0); experiment: Transepithelial transport of EAI045, MDCK-II cells transduced with human ABCG2; type: in vitro ADME; conditions: for efflux ratio r (relative transport ratio): EAI045 5 μM
# T1 construct: expressed in transfected cells; host or cells: MDCK-II cells, stably transduced, generated in the authors' institute
# T1 sequence (Q9UNQ0 1-655): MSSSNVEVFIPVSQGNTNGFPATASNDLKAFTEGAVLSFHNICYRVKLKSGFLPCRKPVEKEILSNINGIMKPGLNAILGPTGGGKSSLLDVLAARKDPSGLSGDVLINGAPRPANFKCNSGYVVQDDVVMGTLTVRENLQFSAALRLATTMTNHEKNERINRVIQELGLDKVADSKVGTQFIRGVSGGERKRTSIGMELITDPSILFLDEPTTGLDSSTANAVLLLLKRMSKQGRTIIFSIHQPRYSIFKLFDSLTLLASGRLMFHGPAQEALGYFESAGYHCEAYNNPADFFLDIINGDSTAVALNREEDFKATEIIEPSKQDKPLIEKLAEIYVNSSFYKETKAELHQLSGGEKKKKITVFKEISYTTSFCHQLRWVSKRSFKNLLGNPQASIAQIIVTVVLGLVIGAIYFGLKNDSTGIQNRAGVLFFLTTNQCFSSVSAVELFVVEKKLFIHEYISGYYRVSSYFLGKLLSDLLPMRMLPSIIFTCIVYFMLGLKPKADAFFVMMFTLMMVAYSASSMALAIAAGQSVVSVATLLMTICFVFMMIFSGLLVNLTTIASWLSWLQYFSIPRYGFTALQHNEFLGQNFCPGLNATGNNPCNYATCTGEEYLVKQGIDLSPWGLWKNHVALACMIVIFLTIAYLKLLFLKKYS
# Experimental: (§1) Transport of EAI045 (5 μM) across epithelia was tested using cell layers of Madin–Darby Canine Kidney (MDCK-II) cells and derived clones expressing hABCB1, hABCG2, or mAbcg2 cDNA. […] In cells overexpressing hABCB1, there was clear transport of EAI045 in the apical direction (r = 5.5, Figure 1C). […] To evaluate the interaction between hABCG2 and mAbcg2 and EAI045, zosuquidar (5 μM) was added to inhibit any endogenous canine ABCB1. In cells overexpressing hABCG2, the BA transport of EAI045 was somewhat increased relative to the AB transport, resulting in an efflux ratio of 1.4 (Figure 1E).
# (§2) Figure 1 In vitro transepithelial transport of EAI045 (5 μM) using MCDK-II parental cells (A,B) or transduced with human ABCB1 (C,D), human ABCG2 (E,F), or murine Abcg2 (G,H) cDNA. At t = 0 EAI045 was added in the donor compartment (either apical or basolateral). At 1, 2, and 4 h EAI045 was quantified in the acceptor compartment and the cumulative total transported amount per well was plotted (n = 3). Zosuquidar (5 μM) was added to inhibit the human and/or the endogenous ABCB1, while Ko143 (5 μM) was added to inhibit the human or murine ABCG2. r, relative transport ratio. […] Points, mean; bars, SD. TEXT PRINTED IN THE PICTURE: (A) no label printed: Parental: r = 1.7 | (B) no label printed: Parental + Zos.: r = 1.1 | (C) no label printed: hABCB1: r = 5.5 | (D) no label printed: hABCB1 + Zos.: r = 1.3 | (E) no label printed: hABCG2 + Zos.: r = 1.4 | (F) no label printed: hABCG2 + Zos. + Ko143: r = 1.1 | (G) no label printed: mAbcg2 + Zos.: r = 1.8 | (H) no label printed: mAbcg2 + Zos. + Ko143: r = 1.4
# (§3) Madin–Darby Canine Kidney (MDCK-II) cells (ECACC 00062107) stably transduced with human (h) ABCB1, hABCG2, or mouse (m) Abcg2 cDNA were generated in our institute between 1998 and 2005. […] In short, cells were allowed to grow an intact monolayer in 3 days, which was monitored with transepithelial electrical resistance (TEER) measurements, both before and after the transport phase. […] Proper functionality of these cell lines was monitored by continual testing with a variety of drug substrates.
# [2] = target: T2, human ABCB1 (Homo sapiens, UniProt P08183); experiment: Transepithelial transport of EAI045, MDCK-II cells transduced with human ABCB1; type: in vitro ADME; conditions: for efflux ratio r (relative transport ratio): EAI045 5 μM
# T2 construct: expressed in transfected cells; host or cells: MDCK-II cells, stably transduced, generated in the authors' institute
# Experimental: as §1, §2, §3
# T2 sequence (P08183 whole entry): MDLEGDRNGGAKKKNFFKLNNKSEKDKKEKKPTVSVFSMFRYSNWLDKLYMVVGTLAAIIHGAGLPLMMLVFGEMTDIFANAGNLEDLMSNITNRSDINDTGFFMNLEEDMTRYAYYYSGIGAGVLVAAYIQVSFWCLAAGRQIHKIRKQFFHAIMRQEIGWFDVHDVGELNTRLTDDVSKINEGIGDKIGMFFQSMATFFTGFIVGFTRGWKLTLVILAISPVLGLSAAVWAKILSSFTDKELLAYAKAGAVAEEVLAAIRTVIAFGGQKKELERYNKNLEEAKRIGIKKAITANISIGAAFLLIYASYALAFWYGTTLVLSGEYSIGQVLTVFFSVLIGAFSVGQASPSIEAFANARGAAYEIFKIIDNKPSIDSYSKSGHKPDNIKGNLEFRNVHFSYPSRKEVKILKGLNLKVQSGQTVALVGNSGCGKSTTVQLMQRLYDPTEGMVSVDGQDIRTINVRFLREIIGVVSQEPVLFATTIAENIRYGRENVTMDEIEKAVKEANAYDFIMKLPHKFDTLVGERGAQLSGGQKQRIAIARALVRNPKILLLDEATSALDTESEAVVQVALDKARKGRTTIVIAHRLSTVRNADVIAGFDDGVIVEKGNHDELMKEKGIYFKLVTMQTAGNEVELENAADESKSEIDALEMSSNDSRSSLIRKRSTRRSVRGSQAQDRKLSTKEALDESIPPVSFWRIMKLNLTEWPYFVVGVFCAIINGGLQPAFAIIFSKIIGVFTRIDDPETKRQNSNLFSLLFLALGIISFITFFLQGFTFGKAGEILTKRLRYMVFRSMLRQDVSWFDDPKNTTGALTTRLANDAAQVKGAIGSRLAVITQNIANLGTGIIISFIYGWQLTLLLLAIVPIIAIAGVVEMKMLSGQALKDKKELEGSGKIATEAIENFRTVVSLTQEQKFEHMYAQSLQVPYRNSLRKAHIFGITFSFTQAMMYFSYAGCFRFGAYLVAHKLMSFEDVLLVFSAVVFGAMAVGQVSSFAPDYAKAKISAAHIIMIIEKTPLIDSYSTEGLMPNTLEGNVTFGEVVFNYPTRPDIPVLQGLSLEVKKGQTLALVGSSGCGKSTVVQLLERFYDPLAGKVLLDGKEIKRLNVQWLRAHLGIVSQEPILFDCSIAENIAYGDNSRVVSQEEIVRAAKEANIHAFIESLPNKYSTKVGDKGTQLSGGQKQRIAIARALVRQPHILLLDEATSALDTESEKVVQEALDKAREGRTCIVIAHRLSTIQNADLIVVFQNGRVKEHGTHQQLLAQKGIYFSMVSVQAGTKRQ
structure (smiles),measurement,setting,value
O=C(Nc1nccs1)C(c1cc(F)ccc1O)N1Cc2ccccc2C1=O (stereo not drawn) [EAI045],efflux ratio r (relative transport ratio),[1]; hABCG2 + zosuquidar 5 μM,1.4
same,efflux ratio r (relative transport ratio),[1]; hABCG2 + zosuquidar 5 μM + Ko143 5 μM,1.1
same,transport by human ABCG2,[1]; in vitro,at best slightly transported
same,efflux ratio r (relative transport ratio),[2]; hABCB1 + zosuquidar 5 μM,1.3
same,efflux ratio r (relative transport ratio),"[2]; hABCB1, no inhibitor",5.5
same,transport substrate of hABCB1,[2]; in vitro,good transport substrate

# — paper PMC9505538, “P-Glycoprotein (MDR1/ABCB1) Restricts Brain Accumulation of the Novel EGFR Inhibitor EAI045 and Oral Elacridar Coadministration Enhances Its Brain Accumulation and Oral Exposure” (Pharmaceuticals, 2022)
